Earlier results in patent publication US20230043979A1, “PHOSPHODIESTERASE-4 INHIBITOR COMBINATIONS, METHODS OF MAKING, AND METHODS OF USE THEREOF” (VK RESEARCH ASSOCIATES INC., priority 2021, published 2023).

Settings: for Median plasma/elimination Half-life (T1/2): Table 1, PDE4 inhibitors, in h; for half-life / median time to maximum concentration: oral administration

Row | Structure (SMILES) | Median plasma/elimination Half-life (T1/2) | half-life | median time to maximum concentration
1 | CCOc1cc([C@@H](CS(C)(=O)=O)N2C(=O)c3cccc(NC(C)=O)c3C2=O)ccc1OC [Apremilast] | 6 to 9 |  | 
2 | COc1ccc([C@]2(C#N)CC[C@@H](C(=O)O)CC2)cc1OC1CCCC1 [Cilomilast] | 7 |  | 
3 | N#Cc1ccc(Oc2ccc3c(c2)COB3O)cc1 [Crisaborole] | 11.9 ± 8.3 |  | 
4 | CC(C)C(=O)c1c(C(C)C)nn2ccccc12 [Ibudilast] | 19 |  | 
5 | O=C(Nc1c(Cl)cncc1Cl)c1ccc(OC(F)F)c(OCC2CC2)c1 [Roflumilast] | 17 - 30 | 17 to 30 h | 1 to 2 h
6 | COc1ccc(C2CNC(=O)C2)cc1OC1CCCC1 (stereo not shown) [Rolipram] | 3 | about 3 hours | about 30 minutes
